This is an account of results in patent US10189839B2, “Tricyclic imidazole compounds as inhibitors of tryptophan hydroxylase” (ACTELION PHARMACEUTICALS LTD, priority 2013, dated 2019).

Each structure is given as a SMILES string.

The IC50 is the concentration that inhibits the measured activity by half. Lower therefore signals greater potency in that assay.

For one assay, the target named is T1, full length human TPH1 (Homo sapiens, UniProt P17752).
T1 construct: To generate the enzyme, full length human TPH1 is cloned into the plasmid pET20b(+); made in house; host or cells: E. coli
T1 sequence (P17752 1-444): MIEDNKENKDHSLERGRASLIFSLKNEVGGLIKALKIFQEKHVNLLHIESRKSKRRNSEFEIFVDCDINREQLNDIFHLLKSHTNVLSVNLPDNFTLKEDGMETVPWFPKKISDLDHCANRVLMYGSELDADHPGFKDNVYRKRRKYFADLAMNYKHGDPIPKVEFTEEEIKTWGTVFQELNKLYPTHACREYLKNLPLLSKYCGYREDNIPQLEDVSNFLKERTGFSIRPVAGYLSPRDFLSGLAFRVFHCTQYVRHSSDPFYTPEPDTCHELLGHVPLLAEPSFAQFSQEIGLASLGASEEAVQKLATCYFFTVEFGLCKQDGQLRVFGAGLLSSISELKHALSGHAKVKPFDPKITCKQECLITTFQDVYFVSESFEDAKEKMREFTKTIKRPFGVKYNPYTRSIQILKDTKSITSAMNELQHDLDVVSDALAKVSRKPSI
Nature of the assay: Biochemical in vitro assay using fluorescence readout (TPH1 enzyme activity). To be noted: Table 1, mean where determined several times. The essentials:
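E. coli-expressed full-length human TPH1 (40-80 nM), affinity- and size-exclusion-purified, incubated 60 min at 15° C. in 0.1M Tris-HCl pH 7.6 with 1 mM DTT, 0.2 mg/ml catalase, 100 μM 6-methyltetrahydropterine and 40 μM L-tryptophan. 5-Hydroxy-L-tryptophan read by fluorescence (ex 300/em 540 nm) after HClO4 quench; IC50 versus vehicle, mean where repeated.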
For the compound `CCc1nc(C)ccc1OCC(=O)N1CCc2nc3n(c2C1c1ccc(C2CC2)cc1F)CCN(CC1CC1)C3` (stereo not shown) [Example 5.2.6, 1-(1-(4-cyclopropyl-2-fluorophenyl)-7-(cyclopropyl-methyl)-3,4,6,7,8,9-hexahydropyrido[4′,3′:4,5]imida-zo[1,2-a]pyrazin-2(1H)-yl)-2-((2-ethyl-6-methylpyridin-3-yl)oxy)ethanone], the IC50 is 16 nM.
`O=C(COc1ccc(N2CCOCC2)cc1Cl)N1CCc2nc3n(c2C1c1ccc(C2CC2)cc1F)CCN(CC1CC1)C3` (stereo not shown) [Example 5.2.7, 2-(2-chloro-4-morpholinophenoxy)-1-(1-(4-cyclopropyl-2-fluorophenyl)-7-(cyclopropylmethyl)-3,4,6,7,8,9-hexahydropyrido[4′,3′:4,5]imidazo[1,2-a]pyrazin-2(1H)-yl)ethanone] registered an IC50 of 8 nM.
With `CC(=O)N1CCn2c(nc3c2C(c2ccc(C4CC4)cc2F)N(C(=O)COc2ccc(N4CCOCC4)nc2Cl)CC3)C1` (stereo not shown) [Example 5.2.8, 1-(7-acetyl-1-(4-cyclopropyl-2-fluorophenyl)-3,4,6,7,8,9-hexahydropyrido[4′,3′:4,5]imidazo[1,2-a]pyrazin-2(1H)-yl)-2-((2-chloro-6-morpholinopyridin-3-yl)oxy)ethanone], the IC50 turned out to be 5 nM.
The same measure, in the same setting: next, `N#Cc1ccc(OCC(=O)N2CCc3nc4n(c3C2c2ccc(C3CC3)cc2F)CCNC4)c(Cl)c1` (stereo not shown) [Example 5.2.9, 3-chloro-4-(2-(1-(4-cyclopropyl-2-fluorophenyl)-3,4,6,7,8,9-hexahydropyrido[4′,3′:4,5]imidazo[1,2-a]pyrazin-2(1H)-yl)-2-oxoethoxy)benzonitrile]: 92 nM; `O=C(COc1cccnc1C(F)(F)F)N1CCc2nc3n(c2C1c1ccc(C2CC2)cc1F)CCNC3` (stereo not shown) [Example 5.2.10, 1-(1-(4-cyclopropyl-2-fluorophenyl)-3,4,6,7,8,9-hexahydropyrido[4′,3′:4,5]imidazo[1,2-a]pyrazin-2(1H)-yl)-2-((2-(trifluoromethyl)pyridin-3-yl)oxy)ethanone]: 50 nM; `N#Cc1ccc(OCC(=O)N2CCc3nc4n(c3C2c2ccc(C3CC3)cc2F)CCNC4)c(Cl)n1` (stereo not shown) [Example 5.2.11, 6-chloro-5-(2-(1-(4-cyclopropyl-2-fluorophenyl)-3,4,6,7,8,9-hexahydropyrido[4′,3′:4,5]imidazo[1,2-a]pyrazin-2(1H)-yl)-2-oxoethoxy)picolinonitrile]: 108 nM.
The compound `CC(=O)N1CCn2c(nc3c2C(c2ccc(C4CC4)cc2F)N(C(=O)COc2ccc(N4CC(F)(F)C4)nc2Cl)CC3)C1` (stereo not shown) [Example 5.2.12, 1-(7-acetyl-1-(4-cyclopropyl-2-fluorophenyl)-3,4,6,7,8,9-hexahydropyrido[4′,3′:4,5]imidazo[1,2-a]pyrazin-2(1H)-yl)-2-((2-chloro-6-(3,3-difluoroazetidin-1-yl)pyridin-3-yl)oxy)ethanone] returned an IC50 of 6 nM.
Same read-out and setting: next, `CC(=O)N1CCn2c(nc3c2C(c2ccc(C4CC4)cc2F)N(C(=O)COc2ccc(C(=O)N(C)C)nc2Cl)CC3)C1` (stereo not shown) [Example 5.2.13, 5-(2-(7-acetyl-1-(4-cyclopropyl-2-fluorophenyl)-3,4,6,7,8,9-hexahydropyrido[4′,3′:4,5]imidazo[1,2-a]pyrazin-2(1H)-yl)-2-oxoethoxy)-6-chloro-N,N-dimethylpicolinamide]: 4 nM; `CC(=O)N1CCn2c(nc3c2C(c2ccc(C4CC4)cc2F)N(C(=O)COc2cccnc2Cl)CC3)C1` (stereo not shown) [Example 5.2.14, 1-(7-acetyl-1-(4-cyclopropyl-2-fluorophenyl)-3,4,6,7,8,9-hexahydropyrido[4′,3′:4,5]imidazo[1,2-a]pyrazin-2(1H)-yl)-2-((2-chloropyridin-3-yl)oxy)ethanone]: 28 nM.
On the same count and under the same terms, next, `CC(=O)N1CCn2c(nc3c2C(c2ccc(C4CC4)cc2F)N(C(=O)COc2cccnc2C(F)(F)F)CC3)C1` (stereo not shown) [Example 5.2.15, 1-(7-acetyl-1-(4-cyclopropyl-2-fluorophenyl)-3,4,6,7,8,9-hexahydropyrido[4′,3′:4,5]imidazo[1,2-a]pyrazin-2(1H)-yl)-2-((2-(trifluoromethyl)pyridin-3-yl)oxy)ethanone]: 10 nM.
Compound `CC(=O)N1CCn2c(nc3c2C(c2ccc(C4CC4)cc2F)N(C(=O)COc2cc(F)cnc2Cl)CC3)C1` (stereo not shown) [Example 5.2.16, 1-(7-acetyl-1-(4-cyclopropyl-2-fluorophenyl)-3,4,6,7,8,9-hexahydropyrido[4′,3′:4,5]imidazo[1,2-a]pyrazin-2(1H)-yl)-2-((2-chloro-5-fluoropyridin-3-yl)oxy)ethanone] came in with an IC50 of 25 nM. Compared with the last compound, the IC50 is about 2.5-fold higher.
Same read-out and setting: next, `CCc1nc(C)ccc1OCC(=O)N1CCc2nc3n(c2C1c1ccc(C2CC2)cc1F)CCN(C(C)=O)C3` (stereo not shown) [Example 5.2.17, 1-(7-acetyl-1-(4-cyclopropyl-2-fluorophenyl)-3,4,6,7,8,9-hexahydropyrido[4′,3′:4,5]imidazo[1,2-a]pyrazin-2(1H)-yl)-2-((2-ethyl-6-methylpyridin-3-yl)oxy)ethanone]: 11 nM; `CC(C)(C)OC(=O)N1CCn2c(nc3c2C(c2ncc(C4CC4)cc2F)N(C(=O)COc2ccc(N4CCOCC4)nc2Cl)CC3)C1` (stereo not shown) [Example 5.4.1, tert-butyl 2-(2-((2-chloro-6-morpholinopyridin-3-yl)oxy)acetyl)-1-(5-cyclopropyl-3-fluoropyridin-2-yl)-1,2,3,4,8,9-hexahydropyrido[4′,3′:4,5]imidazo[1,2-a]pyrazine-7(6H)-carboxylate]: 77 nM; `O=C(COc1cccnc1C(F)(F)F)N1CCc2nc3n(c2C1c1ncc(C2CC2)cc1F)CCNC3` (stereo not shown) [Example 5.4.2, 1-(1-(5-cyclopropyl-3-fluoropyridin-2-yl)-3,4,6,7,8,9-hexahydropyrido[4′,3′:4,5]imidazo[1,2-a]pyrazin-2(1H)-yl)-2-((2-(trifluoromethyl)pyridin-3-yl)oxy)ethanone]: 456 nM.
Same read-out and setting: next, `O=C(COc1ccc(N2CCOCC2)nc1Cl)N1CCc2nc3n(c2C1c1ncc(C2CC2)cc1F)CCNC3` (stereo not shown) [Example 5.4.3, 2-((2-chloro-6-morpholinopyridin-3-yl)oxy)-1-(1-(5-cyclopropyl-3-fluoropyridin-2-yl)-3,4,6,7,8,9-hexahydropyrido[4′,3′:4,5]imidazo[1,2-a]pyrazin-2(1H)-yl)ethanone]: 20 nM; `CCc1cc(F)ccc1OCC(=O)N1CCc2nc3n(c2C1c1ncc(C2CC2)cc1F)CCNC3` (stereo not shown) [Example 5.4.4, 1-(1-(5-cyclopropyl-3-fluoropyridin-2-yl)-3,4,6,7,8,9-hexahydropyrido[4′,3′:4,5]imidazo[1,2-a]pyrazin-2(1H)-yl)-2-(2-ethyl-4-fluorophenoxy)ethanone]: 329 nM.
Consider `CCc1cc(Cl)ccc1OCC(=O)N1CCc2nc3n(c2C1c1ncc(C2CC2)cc1F)CCNC3` (stereo not shown) [Example 5.4.5, 2-(4-chloro-2-ethylphenoxy)-1-(1-(5-cyclopropyl-3-fluoropyridin-2-yl)-3,4,6,7,8,9-hexahydropyrido[4′,3′:4,5]imidazo[1,2-a]pyrazin-2(1H)-yl)ethanone], for which it took 143 nM to reach half-maximal inhibition (IC50).
The same measure, in the same setting: to `CC(=O)N1CCn2c(nc3c2C(c2ncc(C4CC4)cc2F)N(C(=O)COc2ccc(N4CCOCC4)nc2Cl)CC3)C1` (stereo not shown) [Example 5.4.6, 1-(7-acetyl-1-(5-cyclopropyl-3-fluoropyridin-2-yl)-3,4,6,7,8,9-hexahydropyrido[4′,3′:4,5]imidazo[1,2-a]pyrazin-2(1H)-yl)-2-((2-chloro-6-morpholinopyridin-3-yl)oxy)ethanone] belongs 9 nM; to `CC(=O)N1CCn2c(nc3c2C(c2ncc(C4CC4)cc2F)N(C(=O)COc2cc(F)cnc2Cl)CC3)C1` (stereo not shown) [Example 5.4.7, 1-(7-acetyl-1-(5-cyclopropyl-3-fluoropyridin-2-yl)-3,4,6,7,8,9-hexahydropyrido[4′,3′:4,5]imidazo[1,2-a]pyrazin-2(1H)-yl)-2-((2-chloro-5-fluoropyridin-3-yl)oxy)ethanone], 431 nM.
On the same count and under the same terms, next, `CC(=O)N1CCn2c(nc3c2C(c2ncc(C4CC4)cc2F)N(C(=O)COc2ccc(N4CCOCC4)nc2F)CC3)C1` (stereo not shown) [Example 5.4.8, 1-(7-acetyl-1-(5-cyclopropyl-3-fluoropyridin-2-yl)-3,4,6,7,8,9-hexahydropyrido[4′,3′:4,5]imidazo[1,2-a]pyrazin-2(1H)-yl)-2-((2-fluoro-6-morpholinopyridin-3-yl)oxy)ethanone]: 91 nM.

Still in this assay, the particulars now being: Table 2.
The compound `CN(C)C(=O)c1csc(C2c3c(nc4n3CCNC4)CCN2C(=O)COc2ccc(N3CCOCC3)nc2Cl)c1` (stereo not shown) [Example 5.3.1, 5-(2-(2-((2-Chloro-6-morpholinopyridin-3-yl)oxy)acetyl)-1,2,3,4,6,7,8,9-octahydropyrido[4′,3′:4,5]imidazo[1,2-a]pyrazin-1-yl)-N,N-dimethylthiophene-3-carboxamide] came in with an IC50 of 94 nM. That is a double-digit nanomolar value.
The same measure, in the same setting: to `CC(=O)N1CCn2c(nc3c2C(c2cc(C(=O)N(C)C)cs2)N(C(=O)COc2ccc(N4CCOCC4)nc2Cl)CC3)C1` (stereo not shown) [Example 5.3.2, 5-(7-Acetyl-2-(2-((2-chloro-6-morpholinopyridin-3-yl)oxy)acetyl)-1,2,3,4,6,7,8,9-octahydropyrido[4′,3′:4,5]imidazo[1,2-a]pyrazin-1-yl)-N,N-dimethylthiophene-3-carboxamide] belongs 35 nM.
